Results reported in patent US20080038321A1, “PROPHYLACTIC/THERAPEUTIC COMPOSITIONS FOR LIVER DISEASES” (Ajinomoto Co., Inc., priority 2004, published 2008).
Entries after “also recorded” stand apart in the source; their conditions may differ.

Experiments:
[1] = system: GK rats fed with high-fat diets; experiment: GK rats fed with high-fat diets: body weight, fasting glucose, insulin, triglyceride, liver triglyceride
[2] = system: GK rats fed with high-fat diets; settings: rat, in vivo
[3] = system: malic enzyme (ME) gene; experiment: Liver gene expression profiling in GK rats (Gene Chip Rat Genome U34A Array): ME; format: in vivo; settings: 8 weeks, CON group = 1.00
Method: Gene expression profiling was conducted using samples containing equivalent amounts of genes in the liver of individuals in the individual groups. The gene expression profiling was carried out with the Gene Chip Rat Genome U34A Array (Affymetrix Inc.). […] This is because the two genes relate to steatogenesis.
The mRNA levels are expressed while defining the level in the CON group as 1.00.

[4] = before administration (baseline), HFD with about 6% L-Asp or 0.01% pioglitazone
[5] = week 3, HFD with about 6% L-Asp or 0.01% pioglitazone
[6] = week 6, HFD with about 6% L-Asp or 0.01% pioglitazone

N[C@@H](CC(=O)O)C(=O)O [L-Asp, L-aspartic acid]
lipid droplet accumulation around the hepatic portal vein region (histological study) ([1]; HFD plus Asp group): improved (reduced) lipid droplet accumulation | increase in fasting blood glucose level and fasting plasma insulin level (insulin resistance) ([1]; HFD plus Asp group compared with HFD group): less increase in these parameters; also recorded: substantially equivalent to that of the pioglitazone group | fasting plasma triglyceride ([1]; HFD plus Asp group compared with SD group): decreased fasting plasma triglyceride | Fasting blood glucose level [1, 4]: 100 ± 8 mg/dL | Fasting insulin level [1, 4]: 0.5 ± 0.3 ng/mL | Fasting triglyceride level [1, 4]: 92 ± 20 mg/dL | Fasting blood glucose level [1, 5]: 124 ± 7 mg/dL | Fasting insulin level [1, 5]: 1.6 ± 0.4 ng/mL | Fasting triglyceride level [1, 5]: 77 ± 14 mg/dL | Fasting blood glucose level [1, 6]: 110 ± 10 mg/dL | Fasting insulin level [1, 6]: 1.5 ± 0.2 ng/mL | Fasting triglyceride level [1, 6]: 70 ± 16 mg/dL | Triglyceride content in liver [1, 6]: 28 ± 5 mg/g | Body weight [2]: 221 ± 11 g | ME mRNA level in liver ([3]; 3% L-Asp diet (3AS)): 0.55 | ME mRNA level in liver ([3]; 6% L-Asp diet (6AS)): 0.62
